Results: patent US11440903B2, “Salt form and crystal form of compound as FGFR4 inhibitor and preparation method thereof” (GUANGDONG ZHONGSHENG PHARMACEUTICAL CO., LTD, priority 2017, dated 2022)

Experiment: Solubility test in biological media (FaSSIF, FeSSIF, SGF) and water, 37° C.
Type: physicochemical
Conditions: SGF and fasting or satiety state simulated intestinal fluid
Experimental: Step 1: Preparation of Control Solutions (0.2 mg/mL, calculated by free base)
2 mg the crystal form B of the compound represented by formula (I) (or 2.4 mg the crystal form E of the compound represented by formula (II)) as a control was precisely weighed and placed into a 40 mL glass vial, and a diluent (10 mL) was precisely added. The reaction solution was subjected to ultrasonic treatment for 20 min to sufficiently dissolve, then cooled to room temperature and shaked well. Two control solutions (STD #1, STD #2) were formulated in accordance with this method.
Step 2: Preparation of Linear Solutions
The control solution STD #1 of the crystal form B of the compound represented by formula (I) was 1×, 10×, 100×, 1000× and 2000× (free base LOQ) diluted, and designated as the linear solutions L1, L2, L3, L4 and L5; the control solution STD #1 of the crystal form E of the compound represented by formula (II) was 1×, 10×, 100× and 1000× (methanesulfonate LOQ) diluted, and designated as the linear solutions L1, L2, L3, L4.
Step 3: Solubility Test of the crystal form B of the compound represented by formula (I), the crystal form G of the compound represented by formula (III) and the crystal form E of the compound represented by formula (II) in biological media and water
4 samples (about 4 mg) of each of the crystal form B of the compound represented by formula (I), the crystal form E of the compound represented by formula (II), and the crystal form G of the compound represented by formula (III) were added into 12 glass vials (4 mL), respectively, and then 2 mL different biological media (FaSSIF, FeSSIF, SGF) and water were added into each compound respectively, then mixed homogeneously to form a suspension. The suspension was detected for its initial pH value. A magnet was added into the suspension, and placed on a magnetic stirring heater for stirring (at a temperature of 37° C., in dark). After stirring for 24 h, a sample was taken. The taken sample was quickly centrifuged, and the residual solid was detected by XRPD. The supernatant was detected for its pH value and diluted with a diluent into appropriate multiple, then measured with HPLC for its concentration.
FaSSIF: 1. 0.042 g sodium hydroxide, 0.3438 g sodium dihydrogen phosphate and 0.6186 g sodium chloride were weighed, added into 90 mL purified water, and homogeneously mixed, then, the mixture was adjusted with 1 N hydrochloric acid or 1 N sodium hydroxide to pH=6.5, and diluted into a constant volume of 100 mL with purified water; 2. 50 mL of the buffer described above was taken, and 0.224 g commercially available powder (Biorelevant.com) of FaSSIF/FeSSIF/FaSSGF was added thereto, the mixture was stirred to dissolve, and diluted with purified water to a constant volume of 100 mL.
FeSSIF: 1. 0.404 g sodium hydroxide, 0.865 g glacial acetic acid, and 1.1874 g sodium chloride were weighed, added into 90 mL purified water, and homogeneously mixed, then, the mixture was adjusted with 1 N hydrochloric acid or 1 N sodium hydroxide to pH=5.0, and diluted with purified water to a constant volume of 100 mL, 2. 50 mL of the buffer described above was taken, and 1.12 g commercially available powder (Biorelevant.com) of FaSSIF/FeSSIF/FaSSGF was added thereto, the mixture was stirred to dissolve, and diluted with purified water to a constant volume of 100 mL.
FaSSGF (SGF): 1. 0.2 g sodium chloride was weighed, added into 90 mL purified water, and mixed homogeneously, the mixture was adjusted with 1 N hydrochloric acid to pH=1.8, and diluted with purified water to a constant volume of 100 mL, and stood at room temperature.

C=CC(=O)N[C@H]1COC[C@H]1Nc1ncc(/C=C(\F)c2c(Cl)c(OC)cc(OC)c2Cl)cn1.CS(=O)(=O)O [compound represented by formula (II)]
solubility in simulated gastric fluid (SGF) and simulated intestinal fluid (FaSSIF), in words: relatively good solubility

C=CC(=O)N[C@H]1COC[C@H]1Nc1ncc(/C=C(\F)c2c(Cl)c(OC)cc(OC)c2Cl)cn1.O=S(=O)(O)O [compound represented by formula (III)]
solubility in simulated gastric fluid (SGF) and simulated intestinal fluid (FaSSIF), in words: relatively good solubility
